Laboratory results as given in patent publication US20130209522A1, “Drug Release from a Polymer-Controlled Local Antibiotic Delivery System Using a Degradable Bone Graft” (UNIVERSITY OF UTAH RESEARCH FOUNDATION, priority 2012, published 2013).
Where a name gives a salt, the structure may show the parent alone. Read-outs that look alike come from different tables or passages of the source. One block for each molecule: values may come before it.

Legend:
[1] = test system: Staphylococcus aureus (ATCC 25923); test: Zone of inhibition of antibiotic release samples; format: cell-based; conditions: released from PCL-coated allograft bone
Protocol: Zone of Inhibition. Immediately following the kinetics assay, filter paper disks (diameter=6 mm) were placed in the antibiotic release samples in the 96-well plate and dried overnight. Staphylococcus aureus (ATCC 25923 from American Type Culture Collection, Manassas, Va., USA) streaked Brain-Heart Infusion (BHI, BD cat#237500) agar plates were prepared for zone of inhibition experiments using pooled isolated colonies from blood agar plates diluted to a standard concentration (0.5 McFarland units). Subsequently, each drug-containing disk was placed on the bacterial-streaked agar […]. Plates were incubated for 18 hours at 37° C. Electronic calipers were used to measure the cleared (no bacterial growth) diameter surrounding each disk (zone of inhibition). If no measurable zone was present the diameter was recorded as zero.

[2] = cited from earlier work; for Solubility in organic solvents / Water solubility / pH induced in the surrounding: Table 3, for reference; for Solubility in organic solvents: cell wraps over several lines, first line given; for Solubility: ranking of solvents, Table 2
[3] = Tobramycin thermostability during PCL formulation (bioactivity); format: physicochemical; conditions: after inclusion in a PCL formulation; data not shown

Molecule: O=C(O)c1cn(C2CC2)c2cc(N3CCNCC3)c(F)cc2c1=O [Ciprofloxacin]
zones of inhibition compared to the antibiotic salts (vancomycin and oxacillin) [1]: enhanced zones of inhibition

Molecule: Cc1onc(-c2ccccc2)c1C(=O)N[C@@H]1C(=O)N2[C@@H]1SC(C)(C)[C@@H]2C(=O)O [Oxacillin]
Solubility in organic solvents [2]: High: MeOH, | Water solubility [2]: (13.9 mg/ml | pH induced in the surrounding [2]: High

Molecule: CO[C@H]1/C=C/O[C@@]2(C)Oc3c(C)c(O)c4c(O)c(c(/C=N/N5CCN(C)CC5)c(O)c4c3C2=O)NC(=O)/C(C)=C\C=C\[C@H](C)[C@H](O)[C@@H](C)[C@@H](O)[C@@H](C)[C@H](OC(C)=O)[C@@H]1C [Rifampin]
Solubility in organic solvents [2]: DMSO, CHCl3, | zones of inhibition compared to the antibiotic salts (vancomycin and oxacillin) [1]: enhanced zones of inhibition

thermostability during formulation [3]: no loss in bioactivity
Molecule: NC[C@H]1O[C@H](O[C@H]2[C@H](O)[C@@H](O[C@H]3O[C@H](CO)[C@@H](O)[C@H](N)[C@H]3O)[C@H](N)C[C@@H]2N)[C@H](N)C[C@@H]1O [Tobramycin]
Solubility in organic solvents [2]: EtOH | Water solubility [2]: (538 mg/ml | pH induced in the surrounding [2]: Low | solubility in alcohols ([2]; in words): marginally soluble | solubility in water ([2]; in words): very water-soluble | solubility in water ([2]; in words, listed as tobramycin): highly soluble

Molecule: CN[C@H](CC(C)C)C(=O)N[C@H]1C(=O)N[C@@H](CC(N)=O)C(=O)N[C@H]2C(=O)N[C@H]3C(=O)N[C@H](C(=O)N[C@H](C(=O)O)c4cc(O)cc(O)c4-c4cc3ccc4O)[C@H](O)c3ccc(c(Cl)c3)Oc3cc2cc(c3O[C@@H]2O[C@H](CO)[C@@H](O)[C@H](O)[C@H]2O[C@H]2C[C@](C)(N)[C@H](O)[C@H](C)O2)Oc2ccc(cc2Cl)[C@H]1O [Vancomycin HCL]
Solubility [2]: water >>> chloroform & ethanol

Molecule: CN[C@H](CC(C)C)C(=O)N[C@H]1C(=O)N[C@@H](CC(N)=O)C(=O)N[C@H]2C(=O)N[C@H]3C(=O)N[C@H](C(=O)N[C@H](C(=O)O)c4cc(O)cc(O)c4-c4cc3ccc4O)[C@H](O)c3ccc(c(Cl)c3)Oc3cc2cc(c3O[C@@H]2O[C@H](CO)[C@@H](O)[C@H](O)[C@H]2O[C@H]2C[C@](C)(N)[C@H](O)[C@H](C)O2)Oc2ccc(cc2Cl)[C@H]1O [Vancomycin]
Solubility in organic solvents [2]: DMSO

Molecule: Tobramycin Sulfate
Solubility [2]: water >>> acetone >> ethanol
